We go through two molecules from article PMC6364906 (PLoS ONE, 2019).

In one test the test system is bacterial dipeptidases. Particulars: cited from earlier work.
For a further test, the system named is K. pneumoniae GRP-0107. Briefly: MIC/MBC by broth microdilution (CLSI). It counts as cell-based, Klebsiella pneumoniae. Particulars: geometric mean, wild-type strain. How it is done: (§1) The statistical significance of the difference in geometric means of MIC and MBC was determined with the Mann-Whitney U test.
A general note: Dilution methods test growth across graded concentrations, often in twofold steps.

The next test has as its system P. aeruginosa ATCC 27853. Briefly: MIC/MBC by broth microdilution (CLSI). The format is cell-based, Pseudomonas aeruginosa. The note with it: geometric mean, wild-type reference strain. How it is done:
as §1

The test system of another test is P. aeruginosa GRP-0049. The format is cell-based. The note with it: geometric mean, broth microdilution, MDR carbapenem susceptible strain. How it is done: as §1
The next test deals with P. aeruginosa GRP-0019. The format is cell-based. Particulars: geometric mean, broth microdilution, wild-type strain. How it is done:
as §1

The test system of the next test is P. aeruginosa GRP-0036. It counts as cell-based. Particulars: geometric mean, broth microdilution, MDR carbapenem resistant strain. How it is done:
as §1

Converted amounts (≈) assume the structure as drawn.

Take `CC1(C)C[C@@H]1C(=O)N/C(=C\CCCCSC[C@H](N)C(=O)O)C(=O)O` [cilastatin]: the “inhibition of bacterial dipeptidases” value in the test with bacterial dipeptidases is reported as “very inefficient inhibitor”.

As for `C[C@@H](O)[C@H]1C(=O)N2C(C(=O)O)=C(SCCN=CN)C[C@H]12` [imipenem], the “MIC [range]” value was 0.5 µg/mL (≈ 1.67 µM) in the test with K. pneumoniae GRP-0107; 1.0 µg/mL (≈ 3.34 µM) against P. aeruginosa ATCC 27853; 1.2 µg/mL (≈ 4.01 µM) against P. aeruginosa GRP-0049; 0.5 µg/mL (≈ 1.67 µM) with P. aeruginosa GRP-0019; 8 µg/mL (≈ 26.7 µM) in the test on P. aeruginosa GRP-0036.
